ChEMBL document CHEMBL2406904, “Mitigation of cardiovascular toxicity in a series of CSF-1R inhibitors, and the identification of AZD7507” (Bioorg Med Chem Lett, 2013)

What was measured:
Assay type in all cases: ADME, organism-based
[1] = Half life in rat at 10 mg/kg, po and 3 mg/kg, iv; conditions: in vivo
[2] = Volume of distribution at steady state in rat at 10 mg/kg, po and 3 mg/kg, iv; conditions: in vivo, read-out: Vdss
[3] = Oral bioavailability in rat at 10 mg/kg; conditions: in vivo
[4] = Clearance in rat at 10 mg/kg, po; design: dose 10 mg/kg, route oral; conditions: in vivo

half-life [1] | Vd [2] | bioavailability [3] | CL/F [4] | SMILES
342 min | 3.8 L/kg | 100% | 12 mL/min/kg | COc1cc2nnc(C(N)=O)c(Nc3ccc(C)cc3F)c2cc1N1CCN(C)CC1
150 min | 3.8 L/kg | 100% | 17 mL/min/kg | COc1cc2nnc(C(N)=O)c(Nc3ccc(C)cc3F)c2cc1N1CCN(C(C)C)CC1
264 min | 1.6 L/kg | 61% | 4 mL/min/kg | COc1cc2nnc(C(N)=O)c(Nc3ccc(C)cc3F)c2cc1N1C[C@@H](C)N[C@@H](C)C1
54 min | 2.2 L/kg | 15% | 34 mL/min/kg | COc1cc2nnc(C(N)=O)c(Nc3ccc(C)cc3F)c2cc1N1CCC(N(C)C)CC1
456 min | 4.3 L/kg | 3% | 21 mL/min/kg | COCCN1CCN(c2cc3c(Nc4ccc(C)cc4F)c(C(N)=O)nnc3cc2OC)CC1
54 min | 2.2 L/kg | 4% | 66 mL/min/kg | COc1cc2nnc(C(N)=O)c(Nc3ccc(C)cc3F)c2cc1N1CCCN(CCO)CC1
30 min | 1.7 L/kg | 25% | 60 mL/min/kg | COc1cc2nnc(C(N)=O)c(Nc3ccc(C)cc3F)c2cc1N1CCOCC1
36 min | 1.8 L/kg | 21% | 58 mL/min/kg | COc1cc2nnc(C(N)=O)c(Nc3ccc(C)cc3F)c2cc1N1CCC(OC)CC1
90 min | 1.7 L/kg | 3% | 22 mL/min/kg | COc1cc2nnc(C(N)=O)c(Nc3ccc(C)cc3F)c2cc1N1CCN(S(C)(=O)=O)CC1
186 min | 2.2 L/kg | 42% | 7 mL/min/kg | COc1cc2nnc(C(N)=O)c(Nc3ccc(C)cc3F)c2cc1N1CCN(CCO)CC1
54 min | 1.3 L/kg | 53% | 24 mL/min/kg | COc1cc2nnc(C(N)=O)c(Nc3ccc(C)cc3F)c2cc1N1CCN(C(=O)[C@@H](C)O)CC1
210 min | 2.6 L/kg | 100% | 14 mL/min/kg | COc1cc2nnc(C(N)=O)c(Nc3ccc(C)cc3F)c2cc1C1CCN(C(C)C)CC1
366 min | 3.1 L/kg | 100% | 8 mL/min/kg | COc1cc2nnc(C(N)=O)c(Nc3ccc(C)cc3F)c2cc1C1CCN(CCO)CC1
